According to patent US20260297080A1, “BICYCLIC COMPOUNDS AS CDK INHIBITORS” (BeOne Medicines I GmbH, priority 2022, published 2026):

How the values were obtained:
[1] = target: CDK2/Cyclin E1 (Homo sapiens, UniProt P24941); assay: CDK2/Cyclin E1 Biochemical Assay (TR-FRET), 0.060 mM ATP; conditions: 0.15 μM Rb (Ser780)-biotin substrate, pH7.0, 60 min preincubation, 120 min reaction, room temperature
In short: (§1)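 IC50 was from a four-parameter logistic fit of the 665/620 nm TR-FRET ratio (Eu anti-pRb Ser780 mAb, streptavidin-XL665). Compound (0-10 μM) was preincubated 60 min with enzyme, then reacted 120 min at room temperature with 0.15 μM biotinylated Rb (Ser780) peptide. ATP was 0.015 mM for CDK1/Cyclin B1 and 0.060 mM for CDK2/Cyclin E1; buffer was HEPES pH7.0.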

[2] = target: CDK1/Cyclin B1 (Homo sapiens, UniProt P06493); assay: CDK1/Cyclin B1 Biochemical Assay (TR-FRET), 0.015 mM ATP; conditions: 0.15 μM Rb (Ser780)-biotin substrate, pH7.0, 60 min preincubation, 120 min reaction, room temperature
Sequence of CDK1/Cyclin B1 (P06493 whole entry): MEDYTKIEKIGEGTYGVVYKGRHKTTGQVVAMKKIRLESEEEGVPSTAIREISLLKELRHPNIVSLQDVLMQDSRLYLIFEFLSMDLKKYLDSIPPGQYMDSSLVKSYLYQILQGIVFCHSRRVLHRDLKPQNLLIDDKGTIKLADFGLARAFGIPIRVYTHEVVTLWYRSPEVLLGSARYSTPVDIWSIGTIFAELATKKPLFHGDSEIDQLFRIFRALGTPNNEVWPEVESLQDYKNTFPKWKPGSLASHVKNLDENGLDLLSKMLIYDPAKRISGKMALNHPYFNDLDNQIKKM
Sequence of CDK1/Cyclin B1 (P14635 whole entry partner): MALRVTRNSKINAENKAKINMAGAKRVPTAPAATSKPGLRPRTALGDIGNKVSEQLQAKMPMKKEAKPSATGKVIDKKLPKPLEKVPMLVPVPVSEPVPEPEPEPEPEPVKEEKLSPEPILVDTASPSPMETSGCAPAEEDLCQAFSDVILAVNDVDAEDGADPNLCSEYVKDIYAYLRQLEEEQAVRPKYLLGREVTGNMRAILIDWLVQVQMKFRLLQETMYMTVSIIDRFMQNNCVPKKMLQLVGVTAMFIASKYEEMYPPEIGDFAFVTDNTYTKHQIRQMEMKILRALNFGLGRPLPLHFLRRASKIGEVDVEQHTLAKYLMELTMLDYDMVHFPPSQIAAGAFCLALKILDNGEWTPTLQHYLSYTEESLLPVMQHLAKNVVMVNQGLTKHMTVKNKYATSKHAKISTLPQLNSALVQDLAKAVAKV
In short: as §1

| SMILES | IC50 [1] [µM] | IC50 [2] [µM] |
| --- | --- | --- |
| CC(C)NC(=O)O[C@H]1CC[C@@H](c2cc(Nc3ccc4c(c3)C(F)(F)S(=O)(=O)N4C)n[nH]2)C1 (relative stereo) [Example 346, cis-3-(3-((3,3-difluoro-1-methyl-2,2-dioxido-1,3-dihydrobenzo[c]isothiazol-5-yl)amino)-1H-pyrazol-5-yl)cyclopentyl isopropylcarbamate] | 0.031 | 0.482 |
| CCCNC(=O)O[C@H]1CC[C@@H](c2cc(Nc3ccc4c(c3F)CS(=O)(=O)N4C3COC3)n[nH]2)C1 (single isomer, unassigned) [Example 260a, cis-3-(3-((4-fluoro-1-(oxetan-3-yl)-2,2-dioxido-1,3-dihydrobenzo[c]isothiazol-5-yl)amino)-1H-pyrazol-5-yl)cyclopentyl propylcarbamate] | 0.0059 | 0.27 |
| CC(C)NC(=O)O[C@H]1CC[C@@H](c2cc(Nc3ccc4c(c3)N(C)S(=O)(=O)C4)n[nH]2)C1 (relative stereo) [Example 308, cis-3-(3-((1-methyl-2,2-dioxido-1,3-dihydrobenzo[c]isothiazol-6-yl)amino)-1H-pyrazol-5-yl)cyclopentyl isopropylcarbamate] | 0.0022 | 0.026 |
| CC[C@H](C)NC(=O)O[C@H]1CC[C@@H](c2cc(Nc3ccc4c(c3)NS(=O)(=O)C4)n[nH]2)C1 (relative stereo) [Example 306, cis-3-(3-((2,2-dioxido-1,3-dihydrobenzo[c]isothiazol-6-yl)amino)-1H-pyrazol-5-yl)cyclopentyl((S)-sec-butyl)carbamate] | 0.0028 | 0.027 |
| CC1(NC(=O)O[C@H]2CC[C@@H](c3cc(Nc4ccc5c(c4F)CS(=O)(=O)N5C4CC4)n[nH]3)C2)CC1 (relative stereo) [Example 277, cis-3-(3-((1-cyclopropyl-4-fluoro-2,2-dioxido-1,3-dihydrobenzo[c]isothiazol-5-yl)amino)-1H-pyrazol-5-yl)cyclopentyl(1-methylcyclopropyl)carbamate] | 0.0017 | 0.036 |
| CC(C)(C)NC(=O)O[C@@H]1CC[C@H](c2cc(Nc3ccc4c(c3)CS(=O)(=O)N4)n[nH]2)C1 [Example 403a] | 0.001 | 0.01 |
| CC1(NC(=O)O[C@H]2CC[C@@H](c3cc(Nc4ccc5c(c4F)CN(C4COC4)S5(=O)=O)n[nH]3)C2)CC1 (relative stereo) [Example 135, cis-3-(3-((4-fluoro-2-(oxetan-3-yl)-1,1-dioxido-2,3-dihydrobenzo[d]isothiazol-5-yl)amino)-1H-pyrazol-5-yl)cyclopentyl(1-methylcyclopropyl)carbamate] | 0.0043 | 0.32 |
| O=C(NC1(CO)CCC1)O[C@H]1CC[C@@H](c2cc(Nc3ccc4c(c3)CS(=O)(=O)N4)n[nH]2)C1 (relative stereo) [Example 417, cis-3-(3-((2,2-dioxido-1,3-dihydrobenzo[c]isothiazol-5-yl)amino)-1H-pyrazol-5-yl)cyclopentyl(1-(hydroxymethyl)cyclobutyl)carbamate] | 0.003 | 0.018 |
| CC(C)NC(=O)O[C@H]1CC[C@@H](c2cc(Nc3ccc4c(c3F)CN(C3CCN(Cc5ccccc5)C3)S4(=O)=O)n[nH]2)C1 (relative stereo) [Example 87, cis-3-(3-((2-(1-benzylpyrrolidin-3-yl)-4-fluoro-1,1-dioxido-2,3-dihydrobenzo[d]isothiazol-5-yl)amino)-1H-pyrazol-5-yl)cyclopentyl isopropylcarbamate] | 0.029 | 1.09 |
| O=C(NCCC(F)(F)F)O[C@H]1CC[C@@H](c2cc(Nc3ccc4c(c3F)CNS4(=O)=O)n[nH]2)C1 (racemic) [Example 154, cis-3-(3-((4-fluoro-1,1-dioxido-2,3-dihydrobenzo[d]isothiazol-5-yl)amino)-1H-pyrazol-5-yl)cyclopentyl(3,3,3-trifluoropropyl)carbamate] | 0.0017 | 0.333 |
| CCCNC(=O)O[C@H]1CC[C@@H](c2cc(Nc3ccc4c(c3)CCS(=O)(=O)N4)n[nH]2)C1 (relative stereo) [Example 247, cis-3-(3-((2,2-dioxido-3,4-dihydro-1H-benzo[c][1,2]thiazin-6-yl)amino)-1H-pyrazol-5-yl)cyclopentyl propylcarbamate] | 0.0097 | 0.079 |
| CC(C)NC(=O)O[C@H]1CC[C@@H](c2cc(Nc3ccc4c(c3F)C(=O)NS4(=O)=O)n[nH]2)C1 (relative stereo) [Example 59, cis-3-(3-((4-fluoro-1,1-dioxido-3-oxo-2,3-dihydrobenzo[d]isothiazol-5-yl)amino)-1H-pyrazol-5-yl)cyclopentyl isopropylcarbamate] | 0.0058 | 0.296 |

The remaining molecules from weak to strong by IC50 [1], led by results:

| IC50 [1] [µM] | IC50 [2] [µM] | SMILES |
| --- | --- | --- |
| 0.164 | 1.58 | CC(C)NC(=O)O[C@H]1CC[C@@H](c2cc(Nc3ccc4c(c3F)C(F)(F)S(=O)(=O)N4)n[nH]2)C1 (relative stereo) [Example 356, cis-3-(3-((3,3,4-trifluoro-2,2-dioxido-1,3-dihydrobenzo[c]isothiazol-5-yl)amino)-1H-pyrazol-5-yl)cyclopentyl isopropylcarbamate] |
| 0.02 | 0.321 | CN1c2ccc(Nc3cc([C@@H]4CC[C@H](OC(=O)NC5(CO)CC5)C4)[nH]n3)c(F)c2CS1(=O)=O (relative stereo) [Example 350, cis-3-(3-((4-fluoro-1-methyl-2,2-dioxido-1,3-dihydrobenzo[c]isothiazol-5-yl)amino)-1H-pyrazol-5-yl)cyclopentyl(1-(hydroxymethyl)cyclopropyl)carbamate] |
| 0.01 | 0.381 | CC(C)NC(=O)O[C@H]1CC[C@@H](c2cc(Nc3ccc4c(c3F)CN(C3CCC(=O)NC3)S4(=O)=O)n[nH]2)C1 (relative stereo) [Example 82, cis-3-(3-((4-fluoro-1,1-dioxido-2-(6-oxopiperidin-3-yl)-2,3-dihydrobenzo[d]isothiazol-5-yl)amino)-1H-pyrazol-5-yl)cyclopentyl isopropylcarbamate] |
| 0.01 | 0.921 | CC(C)NC(=O)O[C@H]1CC[C@@H](c2cc(Nc3cc4c(cc3F)S(=O)(=O)NC4)n[nH]2)C1 (single isomer, unassigned) [Example 12a, cis-3-(3-((6-fluoro-1,1-dioxido-2,3-dihydrobenzo[d]isothiazol-5-yl)amino)-1H-pyrazol-5-yl)cyclopentyl isopropylcarbamate] |
| 0.0093 | 0.411 | CN1c2ccc(Nc3cc([C@@H]4CC[C@H](OC(=O)N[C@H]5CC[C@@H](O)CC5)C4)[nH]n3)c(F)c2CS1(=O)=O (relative stereo) [Example 347, cis-3-(3-((4-fluoro-1-methyl-2,2-dioxido-1,3-dihydrobenzo[c]isothiazol-5-yl)amino)-1H-pyrazol-5-yl)cyclopentyl((1s,4s)-4-hydroxycyclohexyl)carbamate] |
| 0.0081 | 0.131 | CC(C)NC(=O)O[C@H]1CC[C@@H](c2cc(Nc3cc(F)c4c(c3)CS(=O)(=O)N4CC(F)(F)F)n[nH]2)C1 (relative stereo) [Example 281, cis-3-(3-((7-fluoro-2,2-dioxido-1-(2,2,2-trifluoroethyl)-1,3-dihydrobenzo[c]isothiazol-5-yl)amino)-1H-pyrazol-5-yl)cyclopentyl isopropylcarbamate] |
| 0.0064 | 0.063 | [2H]C([2H])([2H])N1c2ccc(Nc3cc([C@@H]4CC[C@H](OC(=O)NC(C)C)C4)[nH]n3)cc2CS1(=O)=O (relative stereo) [Example 206, cis-3-(3-((1-(methyl-d3)-2,2-dioxido-1,3-dihydrobenzo[c]isothiazol-5-yl)amino)-1H-pyrazol-5-yl)cyclopentyl isopropylcarbamate] |
| 0.0057 | 0.118 | CC1(NC(=O)O[C@H]2CC[C@@H](c3cc(Nc4ccc5c(c4F)CS(=O)(=O)N5)n[nH]3)C2)COC1 (relative stereo) [Example 374, cis-3-(3-((4-fluoro-2,2-dioxido-1,3-dihydrobenzo[c]isothiazol-5-yl)amino)-1H-pyrazol-5-yl)cyclopentyl(3-methyloxetan-3-yl)carbamate] |
| 0.0029 | 0.102 | COc1c(Nc2cc([C@@H]3CC[C@H](OC(=O)NC(C)C)C3)[nH]n2)ccc2c1S(=O)(=O)NC2 (relative stereo) [Example 180, cis-3-(3-((7-methoxy-1,1-dioxido-2,3-dihydrobenzo[d]isothiazol-6-yl)amino)-1H-pyrazol-5-yl)cyclopentyl isopropylcarbamate] |
| 0.0021 | 0.031 | COCC(C)(C)NC(=O)O[C@H]1CC[C@@H](c2cc(Nc3ccc4c(c3F)CS(=O)(=O)N4)n[nH]2)C1 (relative stereo) [Example 376, cis-3-(3-((4-fluoro-2,2-dioxido-1,3-dihydrobenzo[c]isothiazol-5-yl)amino)-1H-pyrazol-5-yl)cyclopentyl(1-methoxy-2-methylpropan-2-yl)carbamate] |
| 0.0021 | 0.03 | CC(C)NC(=O)O[C@H]1CC[C@@H](c2cc(Nc3ccc4c(c3)CCS(=O)(=O)N4C)n[nH]2)C1 (relative stereo) [Example 250, cis-3-(3-((1-methyl-2,2-dioxido-3,4-dihydro-1H-benzo[c][1,2]thiazin-6-yl)amino)-1H-pyrazol-5-yl)cyclopentyl isopropylcarbamate] |
| 0.0013 | 0.119 | CC[C@H](C)NC(=O)O[C@H]1CC[C@@H](c2cc(Nc3ccc4c(c3F)CS(=O)(=O)N4C3COC3)n[nH]2)C1 (single isomer, unassigned) [Example 261a] |
| 0.0012 | 0.223 | CC[C@H](C)NC(=O)O[C@H]1CC[C@@H](c2cc(Nc3ccc4c(c3F)CNS4(=O)=O)n[nH]2)C1 (single isomer, unassigned) [Example 139a] |
